# Test results reported in patent US20220324770A1, “NITRIFICATION INHIBITORS” (The University of Melbourne, priority 2019, published 2022).
# Experiments:
# Dahlen soil = test: Soil microcosm incubation (nitrification of applied ammonium), Dahlen soil; details: for NOx−—N accumulation rate / NOx−—N accumulation rate: effect of temperature (25° C. vs 35° C.): 28-day incubation; for Nitrified NH4+—N (%) Day 3 / Nitrified NH4+—N (%) Day 7 / Nitrified NH4+—N (%) Day 14 / Nitrified NH4+—N (%) Day 21 / Nitrified NH4+—N (%) Day 28: 10 mol %
# Protocol: (§1) The soil used in this study was collected from four different locations in Victoria, Australia: (i) a wheat cropping soil from Horsham (36° 45′S, 142° 07′ E), (ii) a rotational cropping soil from Dahlen (36° 37′S, 142° 09′ E), (iii) a vegetable growing soil from Clyde (38° 08′S, 145° 20′ E), and (iv) a pasture soil from Terang (38° 15′S, 142° 52′E). In addition, a sugarcane cropping soil from South Johnstone in northern Queensland (17° 34′S, 145° 57′ E) was also studied. The water content of the soil was calculated before commencing each experiment, from samples that were oven-dried to constant weight. The soil's water-filled pore space (WFPS) was in the range 52%-61%, which is within the recommended 50-70% range for microbial activity due to oxygen and nutrient availability (Fichtner, T., et al., Applied Sciences, 2019, 9, 496).
# (§2) Soil microcosm incubations were carried out in 250 ml polypropylene specimen containers (Sarstedt, Germany), containing 18.24 g oven dry-weight equivalent of soil. Microcosms were re-wetted and pre-incubated at the test temperature for seven days to revive soil microbial activity. Following pre-incubation, the remaining volume to reach the desired water-filled pore spaces (WFPS %) was applied as one of the following treatment solutions; (NH4)2SO4(Control), (NH4)2SO4+DMPP, or (NH4)2SO4+one of Compounds 1-23. Each treatment was applied in triplicate per soil type, so that n=3 at each time point.
# (§3) Treatment solutions were prepared such that each microcosm received (NH4)2SO4 at a rate of 100 mg N per kg soil, Compounds 1-23 at 10 mol % of applied N, or DMPP at one of 1.5, 3.6 or 10 mol % of applied N, referred to as L-DMPP, M-DMPP or H-DMPP respectively.
# (§4) The microcosms were incubated for 0, 3, 7, 14, 21 or 28 days, where day 0 samples were extracted following 1-hour incubation post-treatment. Soil microcosms were aerated and moisture levels were replenished based on weight loss every few days throughout the incubation period.
# (§5) At the end of each incubation period, soil microcosms were destructively sampled by treatment with 2M KCl (100 mL). After shaking for 1 hour, soil-KCl solutions were filtered (Whatman 42) before storing the filtrates at −20° C. until the conclusion of the experiment. All KCl extracts were then analysed by Segmented Flow Analysis (San++, Skalar, Breda, The Netherlands) for the concentration of nitrogen from ammonium (NH4^+—N) and nitrogen from NO3 and NO2 (NOx^−—N) after appropriate dilutions. Results are reported as the mean of three replicates, errors reported are standard errors of the mean.
# (§6) Nitrification calculations were performed as previously reported (Aulakh, M., et al., Biology and Fertility of Soils 2001, 33, 258-263; Mahmood, T., et al., Soil Research 2017, 55, 715-722) without correction for the initial baseline concentrations of NH4^+—N or NO3^− N in the untreated soil. For each treatment nitrified NH4^+—N (%) was calculated according to eqn. 1:
# (§7) where [NH4^+—N]0 is the NH4^+—N concentration (in mg N kg^−1 soil) of the soil on day 0 and [NH4^+—N]t is the NH4^+—N concentration (in mg N kg^−1 soil) of the soil at a given time point t.
# (§8) NOx^−—N accumulation rates (mg NOx^−—N/kg soil/day) over the 28-day incubation experiments were calculated for each treatment as in the following (eqn. 2):
# (§9) [NOx^−—N]t=0 and [NOx^−—N]t=28 are the combined concentrations of nitrite (NO2) and nitrate (NO3) in the soil (in mg N kg^−1 soil) on day 0 and day 28, respectively.
# Horsham soil = test: Soil microcosm incubation (nitrification of applied ammonium), Horsham soil; details: for rate of NOx−—N accumulation: 28-day incubation
# Protocol: as §1, §2, §3, §4, §5, §6, §7, §8, §9
# South Johnstone soil = test: Soil microcosm incubation (nitrification of applied ammonium), South Johnstone soil; details: South Johnstone soil, 25° C., days 21 and 28
# Protocol: as §1, §2, §3, §4, §5, §6, §7
# [1] = Dahlen soil, 25° C., after 28 days
# [2] = Dahlen soil, 35° C., after 28 days
# [3] = Table 4, Dahlen soil pH 7.3, 25° C.
# [4] = Table 4, Dahlen soil pH 7.3, 35° C.
# [5] = Horsham soil pH 8.8, 25° C., inhibitors 10 mol % of applied N
# [6] = Horsham soil pH 8.8, 25° C., 10 mol %
# [7] = Horsham soil pH 8.8, 35° C., 10 mol %
# [8] = Horsham soil, 25° C., after 28 days
SMILES,"NOx−—N accumulation rate (Dahlen soil; Dahlen soil, 25° C.)",retaining NH4+—N vs uninhibited control treatment and DMPP (Dahlen soil; [1]),NOx−—N accumulation rate: effect of temperature (25° C. vs 35° C.) (Dahlen soil; Dahlen soil),"NOx−—N accumulation rate (Dahlen soil; Dahlen soil, 35° C.)",retaining NH4+ vs both DMPP treatment and control treatment (Dahlen soil; [2]),Nitrified NH4+—N (%) Day 3 (Dahlen soil; [3]),Nitrified NH4+—N (%) Day 7 (Dahlen soil; [3]),Nitrified NH4+—N (%) Day 14 (Dahlen soil; [3]),Nitrified NH4+—N (%) Day 21 (Dahlen soil; [3]),Nitrified NH4+—N (%) Day 28 (Dahlen soil; [3]),Nitrified NH4+—N (%) Day 3 (Dahlen soil; [4]),Nitrified NH4+—N (%) Day 7 (Dahlen soil; [4]),Nitrified NH4+—N (%) Day 14 (Dahlen soil; [4]),Nitrified NH4+—N (%) Day 21 (Dahlen soil; [4]),Nitrified NH4+—N (%) Day 28 (Dahlen soil; [4]),Nitrified NH4+—N (%) Day 3 (Horsham soil; [5]),Nitrified NH4+—N (%) Day 7 (Horsham soil; [6]),Nitrified NH4+—N (%) Day 14 (Horsham soil; [6]),Nitrified NH4+—N (%) Day 21 (Horsham soil; [6]),Nitrified NH4+—N (%) Day 28 (Horsham soil; [6]),other results
"CCCCn1cc(CCC)nn1 [Compound 13, 1-butyl-4-propyl-1H-1,2,3-triazole]",2.5 mg NOx−—N/kg soil/day,performed statistically better,least affected by the temperature change,2.4 mg NOx−—N/kg soil/day,performed statistically better,10.6 ± 3.7%,22.2 ± 50.2%,24.9 ± 59.3%,32.6 ± 2.4%,41.5 ± 1.2%,−1.2 ± 1.1%,3.5 ± 1.3%,9.2 ± 1.1%,34.2 ± 2.4%,33.6 ± 1.3%,17.7 ± 3.9%,23.4 ± 5.4%,40.0 ± 4.3%,47.2 ± 4.3%,72.2 ± 4.8%,"Nitrified NH4+—N (%) Day 3 (Horsham soil; [7]): 3.5 ± 6.4%; Nitrified NH4+—N (%) Day 7 (Horsham soil; [7]): 18.7 ± 5.5%; Nitrified NH4+—N (%) Day 14 (Horsham soil; [7]): 48.0 ± 5.3%; Nitrified NH4+—N (%) Day 21 (Horsham soil; [7]): 59.3 ± 10.3%; Nitrified NH4+—N (%) Day 28 (Horsham soil; [7]): 61.2 ± 14.2%; rate of NOx−—N accumulation (Horsham soil; Horsham soil, 25° C.): 2.8 mg NOx−—N/kg soil/day; retaining NH4+ vs uninhibited control treatment (Horsham soil; [8]): performed statistically better; nitrification rates vs uninhibited control treatment (Horsham soil; Horsham soil, 35° C.): lower nitrification rates than the uninhibited control treatment; retaining NH4+ and preventing NOx production (statistics vs control) (Horsham soil; Horsham soil, 35° C.): performed statistically better; rate of NOx−—N accumulation (Horsham soil; Horsham soil, 35° C.): 2.8 mg NOx−—N/kg soil/day; NH4+—N consumption (Horsham soil; Horsham soil, 35° C., after 28 days): 61%"
"C#CCCn1cc(CCC)nn1 [Compound 17, 1-(3-butyn-1-yl)-4-propyl-1H-1,2,3-triazole]",4.7 mg NOx−—N/kg soil/day,performed statistically better,largest reduction in the accumulation rate,2.4 mg NOx−—N/kg soil/day,performed statistically better,3.0 ± 1.3%,10.4 ± 3.6%,12.1 ± 3.2%,22.2 ± 5.0%,36.4 ± 6.8%,6.3 ± 2.2%,8.8 ± 1.9%,17.7 ± 2.6%,38.0 ± 2.8%,37.6 ± 3.1%,13.5 ± 4.7%,30.6 ± 5.5%,35.1 ± 5.1%,43.9 ± 5.7%,65.8 ± 5.2%,"ammonia consumption (Dahlen soil; [2]): 38%; Nitrified NH4+—N (%) Day 3 (Horsham soil; [7]): −0.8 ± 3.4%; Nitrified NH4+—N (%) Day 7 (Horsham soil; [7]): 8.5 ± 2.8%; Nitrified NH4+—N (%) Day 14 (Horsham soil; [7]): 37.2 ± 2.3%; Nitrified NH4+—N (%) Day 21 (Horsham soil; [7]): 75.7 ± 5.4%; Nitrified NH4+—N (%) Day 28 (Horsham soil; [7]): 76.2 ± 2.1%; retaining NH4+ vs uninhibited control treatment (Horsham soil; [8]): performed statistically better; nitrification rates vs uninhibited control treatment (Horsham soil; Horsham soil, 35° C.): lower nitrification rates than the uninhibited control treatment"
"CCCc1cn(CC(=O)OCC)nn1 [Compound 19, ethyl 2-(4-propyl-1H-1,2,3-triazol-1-yl)-acetate]",,,,,,,,,,,,,,,,,,,,,"effectiveness among the treatments (NH4+—N retention, NOx−—N growth) (South Johnstone soil): least effective"
